Experiment [1] has as its system Mycobacterium tuberculosis. Description: Antimycobacterial activity against Mycobacterium tuberculosis H37Rv by agar dilution method. Type of experiment: functional. Background: In agar dilution, organisms are placed on agar that contains the substance at set levels.
The test system of experiment [2] is Mycolicibacterium smegmatis. As to the kind of experiment: Antimycobacterial activity against Mycobacterium smegmatis MC2 by agar dilution method. Type of experiment: functional.
A further experiment has as its system Vero. As to the kind of experiment: Cytotoxicity against african green monkey Vero cells after 72 hrs by MTT assay. Type of experiment: cell-based. The following applies: Chlorocebus sabaeus.

Values after ≈ are worked out from the molar mass of the structure shown.

As usually defined, the MIC is the least concentration at which growth counts as inhibited. As to `CN1C/C(=C\c2cccs2)C(=O)[C@]2(C1)[C@@H](c1cccs1)[C@H](c1ccccc1)N[C@@]21C(=O)Nc2ccccc21` (racemic), the MIC in experiment [1] and in experiment [2] was 11.6 µg/mL (≈ 21.6 µM) each time.

The term IC50 denotes the concentration at which inhibition is half-maximal. For the molecule `CN1C/C(=C\c2ccccc2Cl)C(=O)[C@]2(C1)[C@@H](c1ccccc1Cl)[C@H](c1ccccc1)N[C@@]21C(=O)Nc2ccccc21` (racemic), the MIC in experiment [1] is 2.63 µg/mL (≈ 4.42 µM); in experiment [2], 10.5 µg/mL (≈ 17.7 µM). In addition, in the experiment on Vero, half-maximal inhibition (IC50) was put at 105 µM.

`Cc1ccc(/C=C2\CN(C)C[C@@]3(C2=O)[C@@H](c2ccc(C)cc2)[C@H](c2ccccc2)N[C@@]32C(=O)Nc3ccccc32)cc1` (racemic): the MIC stood at 0.71 µg/mL (≈ 1.28 µM) in experiment [1] and 2.82 µg/mL (≈ 5.09 µM) in experiment [2]. Moreover, the half-inhibitory concentration (IC50) with Vero was found to be 113 µM.

Turning to `CN1C/C(=C\c2cccc(F)c2)C(=O)[C@]2(C1)[C@@H](c1cccc(F)c1)CN(C)[C@@]21C(=O)Nc2ccccc21` (racemic), the minimal inhibitory concentration (MIC) in experiment [1] is 1.56 µg/mL (≈ 3.12 µM); in experiment [2] it was 6.27 µg/mL (≈ 12.6 µM). The same molecule came in with an IC50 in the experiment on Vero of 125 µM.

On to `CN1C/C(=C\c2cccc3ccccc23)C(=O)[C@]2(C1)[C@@H](c1cccc3ccccc13)[C@H](c1ccccc1)N[C@@]21C(=O)Nc2ccccc21` (racemic), for which the MIC in experiment [1] turned out to be 5.01 µg/mL (≈ 8.01 µM); in experiment [2], 20 µg/mL (≈ 32 µM).

As for `COc1ccccc1/C=C1\CN(C)C[C@@]2(C1=O)[C@@H](c1ccccc1OC)CN(C)[C@@]21C(=O)Nc2ccccc21` (racemic), the MIC in experiment [1] was 0.36 µg/mL (≈ 0.688 µM); in experiment [2] it was 2.98 µg/mL (≈ 5.69 µM). Also, it took 120 µM to reach half-maximal inhibition in the experiment on Vero (IC50).

`COc1ccc(/C=C2\CN(C)C[C@@]3(C2=O)[C@@H](c2ccc(OC)cc2)[C@H](c2ccccc2)N[C@@]32C(=O)Nc3ccccc32)cc1` (racemic): the MIC in experiment [1] is 0.67 µg/mL (≈ 1.14 µM); in experiment [2] it was 1.33 µg/mL (≈ 2.27 µM). This molecule also returned an IC50 in the experiment on Vero of 107 µM.

As for `CN1C/C(=C\c2ccc(Cl)cc2)C(=O)[C@]2(C1)[C@@H](c1ccc(Cl)cc1)[C@@H]1CCCN1[C@@]21C(=O)Nc2ccccc21` (racemic), the MIC in experiment [1] came to 22.7 µg/mL (≈ 40.7 µM); in experiment [2], 90.9 µg/mL (≈ 163 µM).

`CN1C/C(=C\c2cccs2)C(=O)[C@]2(C1)[C@@H](c1cccs1)CN(C)[C@@]21C(=O)Nc2ccccc21` (racemic): the figures for the MIC in experiment [1] and in experiment [2] were 1.64 µg/mL (≈ 3.45 µM) and 6.59 µg/mL (≈ 13.9 µM), respectively. For the same molecule, in the experiment with Vero, the IC50 worked out at 132 µM.

In experiment [2], `O=C(O)c1cn(C2CC2)c2cc(N3CCNCC3)c(F)cc2c1=O` [CIPROFLOXACIN] gave an MIC of 2.35 µg/mL (≈ 7.09 µM).

As for `CN1C/C(=C\c2ccccc2)C(=O)[C@]2(C1)[C@@H](c1ccccc1)[C@H](c1ccccc1)N[C@@]21C(=O)Nc2ccccc21` (racemic), the MIC in experiment [1] was 0.74 µg/mL (≈ 1.41 µM); in experiment [2], 2.97 µg/mL (≈ 5.65 µM). The molecule also returned an IC50 with Vero of 119 µM.

As to `CN1C/C(=C\c2cccc(F)c2)C(=O)[C@]2(C1)[C@@H](c1cccc(F)c1)[C@H](c1ccccc1)N[C@@]21C(=O)Nc2ccccc21` (racemic), the results for the MIC in experiment [1] and in experiment [2] were 2.78 µg/mL (≈ 4.95 µM) and 5.58 µg/mL (≈ 9.94 µM), respectively. Further, half-maximal inhibition in the experiment on Vero (IC50) required 111 µM.

`CN1C/C(=C\c2ccco2)C(=O)[C@]2(C1)[C@@H](c1ccco1)[C@@H]1CCCN1[C@@]21C(=O)Nc2ccccc21` (racemic): the MIC in experiment [1] is 53.3 µg/mL (≈ 114 µM); in experiment [2], 107 µg/mL (≈ 227 µM).

With `CN1C/C(=C\c2cccc3ccccc23)C(=O)[C@]2(C1)[C@@H](c1cccc3ccccc13)CN(C)[C@@]21C(=O)Nc2ccccc21` (racemic), the MIC in experiment [1] amounted to 11.1 µg/mL (≈ 19.7 µM); in experiment [2], 22.2 µg/mL (≈ 39.4 µM).

Consider `COc1ccc(/C=C2\CN(C)C[C@@]3(C2=O)[C@@H](c2ccc(OC)cc2)[C@@H]2CCCN2[C@@]32C(=O)Nc3ccccc32)cc1` (racemic), for which the MIC in experiment [1] was 5.7 µg/mL (≈ 10.4 µM); in experiment [2], 45.5 µg/mL (≈ 82.8 µM).

As to `Cc1ccccc1/C=C1\CN(C)C[C@@]2(C1=O)[C@@H](c1ccccc1C)CN(C)[C@@]21C(=O)Nc2ccccc21` (racemic), the MIC in experiment [1] was determined as 0.39 µg/mL (≈ 0.793 µM); in experiment [2] it was 1.59 µg/mL (≈ 3.23 µM). Further, the midpoint of inhibition in the experiment on Vero, the IC50, lay at 127 µM.

As for `Cc1ccccc1/C=C1\CN(C)C[C@@]2(C1=O)[C@@H](c1ccccc1C)[C@@H]1CCCN1[C@@]21C(=O)Nc2ccccc21` (racemic), the results for the MIC in experiment [1] and in experiment [2] were 12.1 µg/mL (≈ 23.4 µM) and 24.2 µg/mL (≈ 46.7 µM), respectively.

Regarding `CN1C/C(=C\c2ccccc2Cl)C(=O)[C@]2(C1)[C@@H](c1ccccc1Cl)[C@@H]1CCCN1[C@@]21C(=O)Nc2ccccc21` (racemic), the MIC in experiment [1] was 0.35 µg/mL (≈ 0.627 µM); in experiment [2] it was 5.69 µg/mL (≈ 10.2 µM). In addition, half-maximal inhibition with Vero (IC50) was put at 114 µM.

For the molecule `CN1C/C(=C\c2ccccc2Cl)C(=O)[C@]2(C1)[C@@H](c1ccccc1Cl)CN(C)[C@@]21C(=O)Nc2ccccc21` (racemic), the values for the MIC in experiment [1] and in experiment [2] were 0.17 µg/mL (≈ 0.319 µM) and 1.47 µg/mL (≈ 2.76 µM), respectively. Inhibition with Vero was half-maximal at 117 µM (IC50).

As to `Cc1ccc(/C=C2\CN(C)C[C@@]3(C2=O)[C@@H](c2ccc(C)cc2)CN(C)[C@@]32C(=O)Nc3ccccc32)cc1` (racemic), the MIC in experiment [1] stood at 6.37 µg/mL (≈ 13 µM); in experiment [2], 50.9 µg/mL (≈ 104 µM).

Turning to `CN1C/C(=C\c2ccc(Cl)cc2)C(=O)[C@]2(C1)[C@@H](c1ccc(Cl)cc1)CN(C)[C@@]21C(=O)Nc2ccccc21` (racemic), the MIC was found to be 2.93 µg/mL (≈ 5.5 µM) in experiment [1] and 5.88 µg/mL (≈ 11 µM) in experiment [2]. The same molecule displayed an IC50 in the experiment with Vero of 117 µM.

`CN1C/C(=C\c2cccs2)C(=O)[C@]2(C1)[C@@H](c1cccs1)[C@@H]1CCCN1[C@@]21C(=O)Nc2ccccc21` (racemic): the MIC in experiment [1] was found to be 0.38 µg/mL (≈ 0.757 µM); in experiment [2] it was 3.11 µg/mL (≈ 6.2 µM). Further, the IC50 with Vero was 125 µM.

In the case of `CN1C/C(=C\c2ccc(F)cc2)C(=O)[C@]2(C1)[C@@H](c1ccc(F)cc1)[C@@H]1CCCN1[C@@]21C(=O)Nc2ccccc21` (racemic), the MIC in experiment [1] was determined as 2.97 µg/mL (≈ 5.65 µM); in experiment [2], 23.8 µg/mL (≈ 45.3 µM). In the experiment with Vero, the IC50 was found to be 119 µM.

Turning to `Cc1ccc(/C=C2\CN(C)C[C@@]3(C2=O)[C@@H](c2ccc(C)cc2)[C@@H]2CCCN2[C@@]32C(=O)Nc3ccccc32)cc1` (racemic), the MIC was determined as 12.1 µg/mL (≈ 23.4 µM) in experiment [1] and 24.2 µg/mL (≈ 46.7 µM) in experiment [2].

As for `CN1C/C(=C\c2cccc(F)c2)C(=O)[C@]2(C1)[C@@H](c1cccc(F)c1)[C@@H]1CCCN1[C@@]21C(=O)Nc2ccccc21` (racemic), the results for the MIC in experiment [1] and in experiment [2] were 5.96 µg/mL (≈ 11.3 µM) and 23.8 µg/mL (≈ 45.3 µM), respectively.

Regarding `CN1C/C(=C\c2ccc(Cl)cc2)C(=O)[C@]2(C1)[C@@H](c1ccc(Cl)cc1)[C@H](c1ccccc1)N[C@@]21C(=O)Nc2ccccc21` (racemic), the MIC in experiment [1] was determined as 5.27 µg/mL (≈ 8.86 µM); in experiment [2], 42.1 µg/mL (≈ 70.8 µM).

Turning to `CN1C/C(=C\c2ccc(F)cc2)C(=O)[C@]2(C1)[C@@H](c1ccc(F)cc1)CN(C)[C@@]21C(=O)Nc2ccccc21`, the MIC in experiment [1] is 6.27 µg/mL (≈ 12.6 µM); in experiment [2], 50.1 µg/mL (≈ 100 µM).

In the case of `CN1C/C(=C\c2ccccc2)C(=O)[C@]2(C1)[C@@H](c1ccccc1)CN(C)[C@@]21C(=O)Nc2ccccc21` (racemic), the MIC in experiment [1] was found to be 13.5 µg/mL (≈ 29.1 µM); in experiment [2], 54 µg/mL (≈ 116 µM).

As to `CN1C/C(=C\c2ccccc2)C(=O)[C@]2(C1)[C@@H](c1ccccc1)[C@@H]1CCCN1[C@@]21C(=O)Nc2ccccc21` (racemic), the MIC was found to be 25.6 µg/mL (≈ 52.2 µM) in experiment [1] and 102 µg/mL (≈ 209 µM) in experiment [2].

As to `CN1C/C(=C\c2ccc(Cl)cc2Cl)C(=O)[C@]2(C1)[C@@H](c1ccc(Cl)cc1Cl)[C@@H]1CCCN1[C@@]21C(=O)Nc2ccccc21` (racemic), the MIC in experiment [1] was determined as 19.9 µg/mL (≈ 31.8 µM); in experiment [2] it was 79.7 µg/mL (≈ 127 µM).

In the case of `CN1C/C(=C\c2ccco2)C(=O)[C@]2(C1)[C@@H](c1ccco1)[C@H](c1ccccc1)N[C@@]21C(=O)Nc2ccccc21` (racemic), the MIC was 24.8 µg/mL (≈ 49 µM) in experiment [1] and 49.5 µg/mL (≈ 97.9 µM) in experiment [2].
